The values below come from patent US20150196612A1, “Anti-enterovirus 71 steroidal saponins and their preparation” (Shanghai University of Traditional Chinese Medicine, priority 2014, published 2015).

The test system of one data set is enterovirus 71 (EV71). The data set is described as follows: anti-EV71 activity (antiviral bioassay). Type of data set: cell-based.
A short description of data set [1]: cytotoxicity (CC50) of steroidal saponins.
In data set [2] the test system is respiratory syncytial virus (RSV). The settings on record: read-out: IC50, inhibitory effects on RSV; cited from earlier work.

As for `NC(=O)c1ncn([C@@H]2O[C@H](CO)[C@@H](O)[C@H]2O)n1` [Ribavirin, ribavirin, reference compound], in the data set with enterovirus 71 (EV71) (FIG. 6), the “Selective Index (SI)” value is reported as 2.365.

With `C[C@@H](CC[C@@]1(O)O[C@H]2C[C@H]3[C@@H]4CC[C@@H]5C[C@@H](O[C@@H]6O[C@H](CO)[C@H](O)[C@H](O)[C@H]6O[C@@H]6O[C@H](CO)[C@@H](O)[C@H](O)[C@H]6O)CC[C@]5(C)[C@H]4CC[C@]3(C)[C@H]2[C@@H]1C)CO[C@@H]1O[C@H](CO)[C@@H](O)[C@H](O)[C@H]1O` [compound 2, timosaponin B-II], in the data set with enterovirus 71 (EV71) (FIG. 6), the “Selective Index (SI)” value amounted to 92.876. For the same compound, in the data set on enterovirus 71 (EV71) (relative to ribavirin), the “IC50 as percentage of that of positive control ribavirin” value is listed as 1% and the “selectivity index relative to ribavirin's” value is “more than 40 times”. In data set [1], the midpoint of cytotoxicity, the CC50, lay at 401000 nM. As to `CC1=C(CCC(C)CO[C@@H]2O[C@H](CO)[C@@H](O)[C@H](O)[C@H]2O)O[C@H]2CC3C4CCC5CC(O[C@@H]6O[C@H](CO)[C@H](O)[C@H](O)[C@H]6O[C@@H]6O[C@H](CO)[C@@H](O)[C@H](O)[C@H]6O)CC[C@]5(C)C4CC[C@]3(C)[C@@H]12` (stereo partly drawn) [compound 3, anemarsaponin B], in the data set with enterovirus 71 (EV71) (FIG. 6), the “anti-EV71 activity of compounds (in words)” value was “completely inactive”. Consider `C[C@H]1CC[C@@]2(OC1)O[C@H]1C[C@H]3[C@@H]4CC[C@@H]5C[C@@H](O[C@@H]6O[C@H](CO)[C@H](O)[C@H](O)[C@H]6O[C@@H]6O[C@H](CO)[C@@H](O)[C@H](O)[C@H]6O)CC[C@]5(C)[C@H]4CC[C@]3(C)[C@H]1[C@@H]2C` [compound 7, timosaponin A-III], for which the IC50 was 1000 nM in data set [2] and 1060 nM with enterovirus 71 (EV71) (FIG. 6, read-out: IC50 (50% inhibitory concentration), anti-EV71). Regarding `C[C@H]1CC[C@@]2(OC1)O[C@H]1C[C@H]3[C@@H]4CC[C@@H]5C[C@@H](O)CC[C@]5(C)[C@H]4CC[C@]3(C)[C@H]1[C@@H]2C` [compound 8, Sarsasapogenin, reference compound], the “anti-EV71 activity of compounds (in words)” value with enterovirus 71 (EV71) (FIG. 6) is “completely inactive”.
